The values that follow come from US20060160864A1, “Acrylamide derivative, process for producing the same, and use” (priority 2003, published 2006).

This experiment concerns the target T1, human CCR5 (Homo sapiens, UniProt P51681).
T1 construct: expressed in transfected cells
Description: Inhibition of [125I]-RANTES binding to CCR5/CHO cells (CCR5 antagonist activity). The settings on record: test compound 1 μM, [125I]-RANTES 100 pM, CCR5/CHO strains, room temperature; for inhibition at 1 µM: 40 min, read-out: Binding Inhibitory Ratio (%); for Binding Inhibitory Ratio (%): 40 minutes. The protocol: Cloning of a CCR5 gene was conducted from human spleen cDNA by a PCR method. Using 0.5 ng of spleen cDNA (Toyobo Co., Ltd., QUICK-Clone cDNA) as a template, the PCR reaction was carried out in a DNA Thermal Cycler 480 (Perkin Elmer) using a TaKaRa EX Taq (Takara Shuzo Co., Ltd.) (reaction conditions: 30 cycles of treatments at 95° C. for 1 minute, at 60° C. for 1 minute, and at 75° C. for 5 minutes) by adding 25 pmol of primers, SEQ ID NO. 1 (sequence length: 34; sequence type: nucleic acid; number of chains: a single chain; topology: linear; sequence kind: other nucleic acid, synthetic DNA) described in Experimental Example (1) of WO 99/32100, and SEQ ID NO. 2 (sequence length: 34; sequence type: nucleic acid; number of chains: a single chain; topology: linear; sequence kind: other nucleic acid, synthetic DNA) described in Experimental Example (1) of WO 99/32100, respectively, which were prepared by referring to the base sequence of the CCR5 gene described by Samson et al. (Biochemistry 35 (11), 3362-3367 (1996)). The PCR products were subjected to agarose gel electrophoresis to collect DNA fragments of about 1.0 kb. Then, the CCR5 gene was cloned using an Original TA Cloning Kit (Funakoshi Co., Ltd.).
The plasmids obtained above were digested with restriction enzymes XbaI (Takara Shuzo Co., Ltd.) and BamHI (Takara Shuzo Co., Ltd.), and subjected to agarose gel electrophoresis to collect DNA fragments of about 1.0 kb. The DNA fragments and a plasmid pcDNA3.1 (Funakoshi Co., Ltd.) for expression in animal cells, which was previously digested with XbaI and BamHI, were mixed and ligated by DNA Ligation Kit Ver.2 (Takara Shuzo Co., Ltd.). Transformation of E. coli JM109 competent cells (Takara Shuzo Co., Ltd.) gave plasmid pCKR5.
CHO-K1 cells grown in a 750 ml tissue culture flask (Becton Dickinson) using Ham's F12 medium (Nihon Pharmaceutical Co., Ltd.) containing 10% fetal bovine serum (Lifetech Oriental) were collected from the flask by using 0.5 g/L trypsin-0.2 g/L EDTA (Lifetech Oriental). The cells were then washed with PBS (Lifetech Oriental), centrifuged (1000 rpm, 5 minutes), and suspended in PBS. Next, DNA was introduced into the cells using Gene Pulser (Bio-Rad Laboratories Inc.) under the following conditions. Namely, 8×10^6 cells and 10 μg of plasmid pCKR5 for expression of human CCR5 were added into a cuvette of a 0.4 cm-gap, and electroporation was carried out at an electric voltage of 0.25 kV and a capacitance of 960 μF. Subsequently, the cells were transferred into Ham's F12 medium containing 10% fetal bovine serum, and incubated for 24 hours. The cells were again collected, centrifuged, and then suspended in Ham's F12 medium containing 10% fetal bovine serum and Geneticin (Lifetech Oriental) at a concentration of 500 μg/ml. The suspension of cells was diluted to a concentration of 10^4 cells/ml, and inoculated on a 96-well plate (Becton Dickinson) to give Geneticin-resistant strains.
Subsequently, the Geneticin-resistant strains were cultured in the 96-well plate (Becton Dickinson), and then CCR5-expressing cells were selected from the resistant strains. Namely, an assay buffer (Ham's F12 medium containing 0.5% BSA, and 20 mM HEPES (Wako Pure Chemical Industries, Ltd., pH 7.2)) containing 200 pM [^125I]-RANTES (Amersham) as a ligand was added to each well and the binding reaction was carried out at room temperature for 40 minutes. Each well plate containing the cells was washed with ice-cooled PBS, and then to each well was added 1 M NaOH in an amount of 50 μl/well, which was stirred. The cells to which the ligand bound specifically, i.e., CCR5/CHO strains, were selected by measurement of radioactivity by γ-counter.
The CCR5/CHO strains were inoculated on a 96-well microplate at a concentration of 5×10^4 cells/well, respectively and were cultured for 24 hours. […]

T1 sequence (P51681 whole entry): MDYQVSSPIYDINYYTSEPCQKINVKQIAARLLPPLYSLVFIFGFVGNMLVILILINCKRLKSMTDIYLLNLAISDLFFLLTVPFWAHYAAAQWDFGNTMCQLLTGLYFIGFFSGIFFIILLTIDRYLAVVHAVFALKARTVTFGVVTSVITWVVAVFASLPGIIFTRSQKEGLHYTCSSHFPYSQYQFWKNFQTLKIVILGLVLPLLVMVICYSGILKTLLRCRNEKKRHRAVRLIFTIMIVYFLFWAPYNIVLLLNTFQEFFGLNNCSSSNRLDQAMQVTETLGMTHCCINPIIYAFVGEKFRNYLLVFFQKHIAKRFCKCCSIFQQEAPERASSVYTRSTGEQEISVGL

Turning to `CCCCOCCOc1ccc(-c2ccc(N3CCC(C(=O)OC)C3)c(/C=C(\C)C(=O)Nc3ccc([S@@+]([O-])Cc4cncn4CCC)cc3)c2)cc1` (single isomer, unassigned) [Compound 57, (Ss)-(2E)-3-[4′-(2-butoxyethoxy)-4-[3-(methoxycarbonyl)pyrrolidin-1-yl]-1,1′-biphenyl-3-yl]-2-methyl-N-[4-[[(1-propyl-1H-imidazol-5-yl)methyl]sulfinyl]phenyl]acrylamide], the inhibition at 1 µM stood at 100%.
Regarding `CCCCOCCOc1ccc(-c2ccc(N3CCC(C(=O)OC)C3)c(/C=C(\C)C(=O)Nc3ccc([S@@+]([O-])Cc4cncn4CCC)cc3)c2)cc1` (single isomer, unassigned) [Compound 58, (Ss)-(2E)-3-[4′-(2-butoxyethoxy)-4-[3-(methoxycarbonyl)pyrrolidin-1-yl]-1,1′-biphenyl-3-yl]-2-methyl-N-[4-[[(1-propyl-1H-imidazol-5-yl)methyl]sulfinyl]phenyl]acrylamide], the “Binding Inhibitory Ratio (%)” value was 95%.
For `CCCCOCCOc1ccc(-c2ccc(N3CCC(C(=O)O)C3)c(/C=C(\C)C(=O)Nc3ccc([S@@+]([O-])Cc4cncn4CCC)cc3)c2)cc1` (single isomer, unassigned) [Compound 59, (Ss)-(2E)-3-[4′-(2-butoxyethoxy)-4-(3-carboxypyrrolidin-1-yl)-1,1′-biphenyl-3-yl]-2-methyl-N-[4-[[(1-propyl-1H-imidazol-5-yl)methyl]sulfinyl]phenyl]acrylamide], the inhibition at 1 µM worked out at 89%.
With `CCCCOCCOc1ccc(-c2ccc(N3CCC(C(=O)O)C3)c(/C=C(\C)C(=O)Nc3ccc([S@@+]([O-])Cc4cncn4CCC)cc3)c2)cc1` (single isomer, unassigned) [Compound 60, (Ss)-(2E)-3-[4′-(2-butoxyethoxy)-4-(3-carboxypyrrolidin-1-yl)-1,1′-biphenyl-3-yl]-2-methyl-N-[4-[[(1-propyl-1H-imidazol-5-yl)methyl]sulfinyl]phenyl]acrylamide], the “Binding Inhibitory Ratio (%)” value was found to be 91%.
On to `CCCCOCCOc1ccc(-c2ccc(N3CCCC3C)c(/C=C(\C)C(=O)Nc3ccc([S@@+]([O-])Cc4cncn4CCC)cc3)c2)cc1` (stereo partly shown) [Compound 17, (Ss)-(2E)-3-[4′-(2-butoxyethoxy)-4-(2-methylpyrrolidin-1-yl)-1,1′-biphenyl-3-yl]-2-methyl-N-[4-[[(1-propyl-1H-imidazol-5-yl)methyl]sulfinyl]phenyl]acrylamide], for which the inhibition at 1 µM worked out at 100%.
For the molecule `CCCCOCCOc1ccc(-c2ccc(N3CCC(C)C3)c(/C=C(\C)C(=O)Nc3ccc([S@@+]([O-])Cc4cncn4CCC)cc3)c2)cc1` (stereo partly shown) [Compound 23, (Ss)-(2E)-3-[4′-(2-butoxyethoxy)-4-(3-methylpyrrolidin-1-yl)-1,1′-biphenyl-3-yl]-2-methyl-N-[4-[[(1-propyl-1H-imidazol-5-yl)methyl]sulfinyl]phenyl]acrylamide], the inhibition at 1 µM is 100%.
With `CCCCOCCOc1ccc(-c2ccc(N3CCC(O)C3)c(/C=C(\C)C(=O)Nc3ccc([S@@+]([O-])Cc4cncn4CCC)cc3)c2)cc1` (stereo partly shown) [Compound 26], the “Binding Inhibitory Ratio (%)” value was found to be 90%.
Still for that read-out and setting: the value for `CCCCOCCOc1ccc(-c2cc(/C=C(\C)C(=O)Nc3ccc([S@@+]([O-])Cc4cncn4CCC)cc3)c3c(c2)CCCN3C)cc1` [Compound 29, (S)-(2E)-3-[6-[4-(2-butoxyethoxy)phenyl]-1-methyl-1,2,3,4-tetrahydroquinolin-8-yl]-2-methyl-N-[4-[[(1-propyl-1H-imidazol-5-yl)methyl]sulfinyl]phenyl]-2-acrylic amide] was 100%.
As for `CCCCOCCOc1ccc(-c2ccc(N3CCCC3)c(/C(C)=C/C(=O)Nc3ccc([S@@+]([O-])Cc4cncn4CCC)cc3)c2)cc1` [Compound 35, (S)-(2E)-3-[4′-(2-butoxyethoxy)-4-pyrrolidin-1-yl-1,1′-biphenyl-3-yl]-N-[4-[[(1-propyl-1H-imidazol-5-yl)methyl]sulfinyl]phenyl]but-2-enoic amide], the inhibition at 1 µM turned out to be 100%.
The same measure, in the same setting: the value for `CCCCOCCOc1ccc(-c2ccc(N3CCC(COC(C)=O)C3)c(/C=C(\C)C(=O)Nc3ccc([S@@+]([O-])Cc4cncn4CCC)cc3)c2)cc1` (stereo partly shown) [Compound 38, (Ss)-(2E)-3-[4-[3-(acetoxymethyl)pyrrolidin-1-yl]-4′-(2-butoxyethoxy)-1,1′-biphenyl-3-yl]-2-methyl-N-[4-[[(1-propyl-1H-imidazol-5-yl)methyl]sulfinyl]phenyl]acrylamide] was 93%; that for `CCCCOCCOc1ccc(-c2ccc(N3CCC(CO)C3)c(/C=C(\C)C(=O)Nc3ccc([S@@+]([O-])Cc4cncn4CCC)cc3)c2)cc1` (stereo partly shown) [Compound 39, (Ss)-(2E)-3-[4′-(2-butoxyethoxy)-4-[3-(hydroxymethyl)pyrrolidin-1-yl]-1,1′-biphenyl-3-yl]-2-methyl-N-[4-[[(1-propyl-1H-imidazol-5-yl)methyl]sulfinyl]phenyl]acrylamide] was 99%; that for `CCCCOCCOc1ccc(-c2ccc(N3CCC(C(=O)OC)C3)c(/C=C(\C)C(=O)Nc3ccc([S@@+]([O-])Cc4cncn4CCC)cc3)c2)cc1` (stereo partly shown) [Compound 40, (Ss)-(2E)-3-[4′-(2-butoxyethoxy)-4-[3-(methoxycarbonyl)pyrrolidin-1-yl]-1,1′-biphenyl-3-yl]-2-methyl-N-[4-[[(1-propyl-1H-imidazol-5-yl)methyl]sulfinyl]phenyl]acrylamide] was 100%.
On the same count and under the same terms, in the case of `CCCCOCCOc1ccc(-c2ccc(N3CC(C)C(C)C3)c(/C=C(\C)C(=O)Nc3ccc([S@@+]([O-])Cc4cncn4CCC)cc3)c2)cc1` (stereo partly drawn) [Compound 42, (S)-(2E)-3-[4′-(2-butoxyethoxy)-4-(3,4-dimethylpyrrolidin-1-yl)-1,1′-biphenyl-3-yl]-2-methyl-N-[4-[[(1-propyl-1H-imidazol-5-yl)methyl]sulfinyl]phenyl]acrylamide] it was 100%; in that of `CCCCOCCOc1ccc(-c2ccc(N3CCC(C(N)=O)C3)c(/C=C(\C)C(=O)Nc3ccc([S@@+]([O-])Cc4cncn4CCC)cc3)c2)cc1` (stereo partly shown) [Compound 43, (Ss)-(2E)-3-[4′-(2-butoxyethoxy)-4-(3-carbamoylpyrrolidin-1-yl)-1,1′-biphenyl-3-yl]-2-methyl-N-[4-[[(1-propyl-1H-imidazol-5-yl)methyl]sulfinyl]phenyl]acrylamide], 86%; in that of `CCCCOCCOc1ccc(-c2cnc(N3CCCC3)c(/C=C(\C)C(=O)Nc3ccc([S@@+]([O-])Cc4cncn4CCC)cc3)c2)cc1` [Compound 47, (S)-(2E)-3-[5-[4-(2-butoxyethoxy)phenyl]-2-pyrrolidin-1-ylpyridin-3-yl]-2-methyl-N-[4-[[(1-propyl-1H-imidazol-5-yl)methyl]sulfinyl]phenyl]acrylamide], 96%.
Same read-out and setting: in the case of `CCCCOCCOc1ccc(-c2cnc(N3CCC(C)C3)c(/C=C(\C)C(=O)Nc3ccc([S@@+]([O-])Cc4cncn4CCC)cc3)c2)cc1` (stereo partly shown) [Compound 48, (Ss)-(2E)-3-[5-[4-(2-butoxyethoxy)phenyl]-2-(3-methylpyrrolidin-1-yl)pyridin-3-yl]-2-methyl-N-[4-[[(1-propyl-1H-imidazol-5-yl)methyl]sulfinyl]phenyl]acrylamide] it was 98%.
